Measured values as given in ChEMBL document CHEMBL1123635, “Angiotensin-converting enzyme inhibitors: perhydro-1,4-thiazepin-5-one derivatives” (J Med Chem, 1987).

The molecules below were run against T1, Angiotensin-converting enzyme (Oryctolagus cuniculus, UniProt P12822) (assay: Inhibitory activity against rabbit lung Angiotensin I converting enzyme with 5 mM hippuryl-histidyl-leucine as substrate).
T1 sequence (P12822 whole entry): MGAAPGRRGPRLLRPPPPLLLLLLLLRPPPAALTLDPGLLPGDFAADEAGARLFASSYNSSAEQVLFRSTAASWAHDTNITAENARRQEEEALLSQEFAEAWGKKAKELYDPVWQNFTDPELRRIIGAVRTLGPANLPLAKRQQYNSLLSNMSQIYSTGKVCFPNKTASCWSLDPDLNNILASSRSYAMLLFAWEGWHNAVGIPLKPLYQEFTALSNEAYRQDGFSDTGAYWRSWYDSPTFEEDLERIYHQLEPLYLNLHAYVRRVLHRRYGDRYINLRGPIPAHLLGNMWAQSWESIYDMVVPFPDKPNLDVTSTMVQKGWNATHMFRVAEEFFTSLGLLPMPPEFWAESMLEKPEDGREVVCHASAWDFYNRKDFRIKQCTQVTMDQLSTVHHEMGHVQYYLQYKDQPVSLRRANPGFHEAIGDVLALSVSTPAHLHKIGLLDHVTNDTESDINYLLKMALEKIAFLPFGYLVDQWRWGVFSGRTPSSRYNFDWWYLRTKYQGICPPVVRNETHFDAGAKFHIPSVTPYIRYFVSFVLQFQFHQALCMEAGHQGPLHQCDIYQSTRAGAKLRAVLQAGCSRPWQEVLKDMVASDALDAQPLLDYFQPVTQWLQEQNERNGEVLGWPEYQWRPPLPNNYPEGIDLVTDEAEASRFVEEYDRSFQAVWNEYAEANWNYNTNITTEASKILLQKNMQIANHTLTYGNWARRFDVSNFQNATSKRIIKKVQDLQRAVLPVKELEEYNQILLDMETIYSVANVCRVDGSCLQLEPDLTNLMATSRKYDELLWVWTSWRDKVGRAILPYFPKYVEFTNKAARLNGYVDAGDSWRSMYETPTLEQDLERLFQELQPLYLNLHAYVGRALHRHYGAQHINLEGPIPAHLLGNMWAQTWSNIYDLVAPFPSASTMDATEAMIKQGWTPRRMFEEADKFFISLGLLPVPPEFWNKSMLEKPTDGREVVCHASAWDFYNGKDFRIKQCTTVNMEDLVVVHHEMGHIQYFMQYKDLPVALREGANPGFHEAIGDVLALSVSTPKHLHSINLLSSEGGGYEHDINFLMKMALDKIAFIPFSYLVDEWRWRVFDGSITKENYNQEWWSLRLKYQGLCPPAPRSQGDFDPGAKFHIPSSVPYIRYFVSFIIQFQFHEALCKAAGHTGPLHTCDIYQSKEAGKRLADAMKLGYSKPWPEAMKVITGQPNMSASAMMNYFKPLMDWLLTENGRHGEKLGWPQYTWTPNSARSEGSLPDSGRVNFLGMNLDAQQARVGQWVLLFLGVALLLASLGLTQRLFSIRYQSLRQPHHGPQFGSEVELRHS

SMILES | IC50
O=C(O)CN1C[C@H](c2ccsc2)SC[C@H](N[C@@H](CCc2ccccc2)C(=O)O)C1=O | 86.9 nM
O=C(O)CN1C(=O)[C@@H](N[C@@H](CCc2ccccc2)C(=O)O)CSC[C@@H]1c1ccccc1 | 78.2 nM
O=C(O)CN1C[C@@H](c2ccsc2)SC[C@H](N[C@@H](CCc2ccccc2)C(=O)O)C1=O | 4.1 nM
O=C(O)CN1C(=O)[C@@H](N[C@@H](CCc2ccccc2)C(=O)O)CSC[C@H]1c1ccccc1 | 3.4 nM
O=C(O)CN1C(=O)[C@@H](N[C@@H](CCc2ccccc2)C(=O)O)CSCC1c1cccs1 (some centres undefined) | 2.8 nM
O=C(O)CN1C[C@@H](c2ccccc2)SC[C@H](N[C@@H](CCc2ccccc2)C(=O)O)C1=O | 3.7 nM
O=C(O)CN1C[C@H](c2cccs2)SC[C@H](N[C@@H](CCc2ccccc2)C(=O)O)C1=O | 64.7 nM
O=C(O)CN1C[C@H](c2ccccc2)SC[C@H](N[C@@H](CCc2ccccc2)C(=O)O)C1=O | 35.5 nM
O=C(O)CN1C[C@@H](c2cccs2)SC[C@H](N[C@@H](CCc2ccccc2)C(=O)O)C1=O [TEMOCAPRILAT] | 3.6 nM
